Assay results reported in PMC9286316, “Importance of the Cyclic Cystine Knot Structural Motif for Immunosuppressive Effects of Cyclotides” (ACS Chemical Biology, 2021).

Tested on: human PBMCs
Assay: Lymphocyte proliferation assay (CFSE, anti-CD3/anti-CD28 stimulated PBMC, flow cytometry)
Type: cell-based
Settings: 72 h; for antiproliferative activity (Figure 2B): tested concentration range 1–100 μg/mL peptide, three biological replicates
Procedure: Blood of healthy donors was obtained from the Blood Transfusion Centre (University Medical Centre Freiburg, Freiburg Germany), and all experiments conducted on human material were approved by the ethics committee of the University Freiburg (55/14). Venous blood was centrifuged to isolate peripheral blood mononuclear cells on a LymphoPrep gradient (density: 1.077 g/cm^3, 20 min, 500 × g, 20 °C; Progen, Heidelberg, Germany). PBMCs were collected and washed twice with phosphate buffer saline (PBS; GE Healthcare, München), and cell viability and concentration were determined using the trypan blue exclusion test. Cells were cultured in RPMI 1640 medium supplemented with 10% heat-inactivated fetal calf serum, 2 mM L-glutamine, 100 U/mL penicillin, and […] streptomycin (all from Life Technologies, Paisley, UK) and cultured at 37 °C in a humidified incubator with a 5% CO2/95% air atmosphere.
Harvested PBMC were washed twice in cold PBS and resuspended in PBS at a concentration of 5 × 10^6 cells per mL. Carboxyfluorescein diacetate succinimidyl ester (CFSE; 5 μM; Sigma-Aldrich, St. Louis, MO) staining was performed to determine T-cell proliferation. Cells were stained with CFSE and incubated for 10 min at 37 °C. The staining reaction was stopped by washing twice with complete growth medium. Afterward, stained cells were stimulated with anti-human CD3 (clone OKT3) and anti-human CD28 (clone 28.6) mAbs (each 100 ng/mL; both from eBioscience, Frankfurt, Germany) treated as indicated in the figure legends, with medium alone, cyclosporine A (CsA; 5 μg/mL, purity ≥99%, Sandimmun 50 mg/mL, Novartis Pharma, Basel, Switzerland), camptothecin (CPT; 300 μM; purity >98%; Tocris, Bristol, UK), or in the presence of the indicated concentrations of peptides for 72 h at 37 °C in a humidified incubator with a 5% CO2/95% air atmosphere. Cell division progress was analyzed by flow cytometric analysis using a FACS Calibur analyzer (BD Bioscience, Becton Dickinson, Franklin Lakes, NJ). Data were generated using FlowJo software. For further analysis of FACS raw data Microsoft Excel and SPSS software (IBM, Version 22.0, Armonk, USA) were applied. All bioactivity data are represented as mean ± standard deviation (SD) for the indicated number of independent experiments. Statistical significance was determined by a one-way ANOVA followed by Dunnett’s post hoc pairwise comparisons. The asterisks (*p < 0.05, **p < 0.01, ***p < 0.001) represent significant differences from the respective control.

Compound | antiproliferative activity (Figure 2B) | antiproliferative activity (Figure 1D) (tested concentration range up to 10 μM (∼29 μg/mL), mean ± SD of three biological replicates relative to stimulated control)
CC(C)C[C@@H]1NC(=O)CNC(=O)[C@H](CC(N)=O)NC(=O)[C@H](CCCNC(=N)N)NC(=O)[C@H]([C@@H](C)O)NC(=O)[C@H](CSCC(N)=O)NC(=O)[C@H](C(C)C)NC(=O)[C@@H]2CCCN2C(=O)[C@H](Cc2c[nH]c3ccccc23)NC(=O)[C@H](CO)NC(=O)[C@H](CSCC(N)=O)NC(=O)[C@H](CCCCN)NC(=O)[C@H](CSCC(N)=O)NC(=O)CNC(=O)[C@@H]2CCCN2C(=O)[C@H]([C@@H](C)O)NC(=O)[C@H](CC(N)=O)NC(=O)[C@H](CSCC(N)=O)NC(=O)[C@H]([C@@H](C)O)NC(=O)CNC(=O)CNC(=O)[C@H](C(C)C)NC(=O)[C@H](CSCC(N)=O)NC(=O)[C@H]([C@@H](C)O)NC(=O)[C@H](CCC(=O)O)NC(=O)CNC(=O)[C@H](CSCC(N)=O)NC(=O)[C@H](C(C)C)NC(=O)[C@@H]2CCCN2C1=O [T20K-Acm] | total loss of antiproliferative activity | 
CCN1C(=O)CC(SC[C@@H]2NC(=O)CNC(=O)[C@@H]3CCCN3C(=O)[C@H]([C@@H](C)O)NC(=O)[C@H](CC(N)=O)NC(=O)[C@H](CSC3CC(=O)N(CC)C3=O)NC(=O)[C@H]([C@@H](C)O)NC(=O)CNC(=O)CNC(=O)[C@H](C(C)C)NC(=O)[C@H](CSC3CC(=O)N(CC)C3=O)NC(=O)[C@H]([C@@H](C)O)NC(=O)[C@H](CCC(=O)O)NC(=O)CNC(=O)[C@H](CSC3CC(=O)N(CC)C3=O)NC(=O)[C@H](C(C)C)NC(=O)[C@@H]3CCCN3C(=O)[C@H](CC(C)C)NC(=O)CNC(=O)[C@H](CC(N)=O)NC(=O)[C@H](CCCNC(=N)N)NC(=O)[C@H]([C@@H](C)O)NC(=O)[C@H](CSC3CC(=O)N(CC)C3=O)NC(=O)[C@H](C(C)C)NC(=O)[C@@H]3CCCN3C(=O)[C@H](Cc3c[nH]c4ccccc34)NC(=O)[C@H](CO)NC(=O)[C@H](CSC3CC(=O)N(CC)C3=O)NC(=O)[C@H](CCCCN)NC2=O)C1=O (stereo partly shown) [T20K-Nem] | total loss of antiproliferative activity | 
CSSC[C@@H]1NC(=O)CNC(=O)[C@@H]2CCCN2C(=O)[C@H]([C@@H](C)O)NC(=O)[C@H](CC(N)=O)NC(=O)[C@H](CSSC)NC(=O)[C@H]([C@@H](C)O)NC(=O)CNC(=O)CNC(=O)[C@H](C(C)C)NC(=O)[C@H](CSSC)NC(=O)[C@H]([C@@H](C)O)NC(=O)[C@H](CCC(=O)O)NC(=O)CNC(=O)[C@H](CSSC)NC(=O)[C@H](C(C)C)NC(=O)[C@@H]2CCCN2C(=O)[C@H](CC(C)C)NC(=O)CNC(=O)[C@H](CC(N)=O)NC(=O)[C@H](CCCNC(=N)N)NC(=O)[C@H]([C@@H](C)O)NC(=O)[C@H](CSSC)NC(=O)[C@H](C(C)C)NC(=O)[C@@H]2CCCN2C(=O)[C@H](Cc2c[nH]c3ccccc23)NC(=O)[C@H](CO)NC(=O)[C@H](CSSC)NC(=O)[C@H](CCCCN)NC1=O [T20K-S-methyl] | total loss of antiproliferative activity | 
GLPVCGETCVGGTCNTPGCKCSWPVCTR↓N (head to tail) [cyclic reduced T20K] |  | lost activity
